One data set has as its system A3G-Luc/Vif. As to the kind of experiment: A3G-Luc/Vif luciferase screen in 293T cells stably co-expressing A3G-Luc and HIV-1 Vif. In kind it is cell-based, human. The following applies: for Vif-A3G-Luc Activity (% of RLUs compared to DMSO treated control): 10 μM, 48 hrs, DMSO = 100%.
The next data set relates to 293T cells. As to the kind of experiment: Cellular cytotoxicity by counting cells after 48 hrs with compound vs DMSO. It counts as cell-based. The following applies: concentration at which cell death was seen; 48 hrs. Here is the method:
To screen compounds that can boost A3G levels, 293T cells (25,000 cells per well in 96-well plate) stably expressing A3G-Luc protein or A3G-Luc/Vif proteins were plated. After 24 hrs post plating culture medium was replaced with 100 μl of new medium containing either DMSO as a control or various compounds (10 μM concentration). After 48 hrs of incubation with compounds culture medium was removed from each well and replaced with 100 μl of Britelite Plus luciferase assay substrate (PerkinElmer). Following 5 min. of incubation at room temperature, 75 μl of each cell lysate was transferred to a 96-well OptiPlate 96 (PerkinElmer) and luminescence was measured in a VICTOR X2 Multilabel Reader (PerkinElmer). Relative activity of compounds for their boosting capability A3G-Luc activity was calculated by plotting DMSO-treated A3G-Luc or A3G-Luc/Vif cells as 100%. Cellular cytotoxicity was measured by counting number of cells after 48 hrs of incubation with compounds compared to DMSO treated cells.

The next data set addresses T1, mutant Y124A A3G (Homo sapiens, UniProt Q9HC16, Y124A).
T1 construct: expressed in transfected cells; host or cells: 293T, transient transfection
As to the kind of experiment: Steady state A3 protein level by immunoblot in transiently transfected 293T cells. In kind it is cell-based. The conditions noted are these: 293T transiently transfected, immunoblot (FIG. 7). Here is the method: (§1) FIG. 7. 293T cells were transiently transfected with 400 ng of expression vectors for wild type A3G (A3G), a mutant A3G (A3G Y124A), and A3F (A3F) to test effect of NU52 treatment on steady state levels of the respective A3 protein, as detected by immunoblotting with respective antibodies, with GAPDH as loading control.
A general note: In western blotting, separated proteins are transferred to a membrane and probed.

In a further data set the target is T2, wild type A3F (Homo sapiens, UniProt Q8IUX4).
T2 construct: expressed in transfected cells; host or cells: 293T, transient transfection
T2 sequence (Q8IUX4 whole entry): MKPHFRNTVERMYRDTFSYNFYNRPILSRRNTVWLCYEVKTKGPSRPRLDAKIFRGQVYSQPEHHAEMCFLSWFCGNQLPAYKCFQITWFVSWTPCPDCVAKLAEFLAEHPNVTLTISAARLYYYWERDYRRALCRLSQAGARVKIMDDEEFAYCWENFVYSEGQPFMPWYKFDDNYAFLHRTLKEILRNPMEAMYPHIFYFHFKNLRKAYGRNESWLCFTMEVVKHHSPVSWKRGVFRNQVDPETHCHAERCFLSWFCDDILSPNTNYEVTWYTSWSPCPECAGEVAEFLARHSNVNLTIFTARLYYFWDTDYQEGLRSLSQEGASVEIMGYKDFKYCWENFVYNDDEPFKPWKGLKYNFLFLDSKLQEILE
Described as above. It counts as cell-based. The conditions noted are these: 293T transiently transfected, immunoblot (FIG. 7). Here is the method:
as §1

The next data set deals with T3, wild type A3G (Homo sapiens, UniProt Q9HC16).
T3 construct: expressed in transfected cells; host or cells: 293T, transient transfection
T3 sequence (Q9HC16 whole entry): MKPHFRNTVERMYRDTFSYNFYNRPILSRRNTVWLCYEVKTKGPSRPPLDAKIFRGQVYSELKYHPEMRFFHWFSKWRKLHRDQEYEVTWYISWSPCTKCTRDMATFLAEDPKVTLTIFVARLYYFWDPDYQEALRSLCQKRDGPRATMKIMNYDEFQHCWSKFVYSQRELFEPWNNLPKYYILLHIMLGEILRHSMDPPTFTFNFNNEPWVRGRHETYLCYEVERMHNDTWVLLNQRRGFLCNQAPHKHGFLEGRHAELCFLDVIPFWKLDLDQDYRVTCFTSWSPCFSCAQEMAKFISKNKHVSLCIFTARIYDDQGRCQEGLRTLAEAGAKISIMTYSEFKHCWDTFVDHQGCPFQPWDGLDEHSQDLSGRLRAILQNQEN
The data set is described as above. In kind it is cell-based. The following applies: 293T transiently transfected, immunoblot (FIG. 7). Here is the method: as §1

The test system of data set [1] is HIV NL4-3. As to the kind of experiment: Infectivity of virions from 293T co-transfected with NL4-3 and A3G, TZM-bl cells. It counts as cell-based, HIV-1. The conditions noted are these: co-transfection of 293T with HIV NL4-3 and A3G (FIG. 8). Here is the method:
(§2) FIG. 8. 293T cells were co-transfected with […] of NL4.3 plasmid DNA and 400 ng of either control or A3F/G DNAs, with or without NU52. Infectivity of equal amounts of resulting viruses (normalized by HIV-1 p24 antigen) were measured using TZM-bl cells. NU-52 treatment of producer cell reduced infectivity of virus produced from those cells.

In data set [2] the test system is HIV NL4-3. As to the kind of experiment: Infectivity of virions from 293T co-transfected with NL4-3 and A3F, TZM-bl cells. It counts as cell-based, HIV-1. The following applies: co-transfection of 293T with HIV NL4-3 and A3F (FIG. 8). Here is the method:
as §2

T1 sequence (Q9HC16 whole entry Y124A): as the sequence (Q9HC16 whole entry) above, with Y124A counted along it

Turning to `COc1ccc(C(=O)Nc2ccc(Cl)c(Cl)c2)cc1NC(=O)C(C)C` [NU-52], the “Vif-A3G-Luc Activity (% of RLUs compared to DMSO treated control)” value in the data set on A3G-Luc/Vif was 135%. Besides, in the data set with A3G-Luc/Vif (293T stably expressing A3G-Luc, with Vif (FIG. 6)), the “increase of A3G” value was “about 3 fold”. The “Cytotoxicity: Cell Death at” value with 293T cells is given as “Cell Death at 30 μM”. Besides, at mutant Y124A A3G, the “expression of mutant Y124A A3G” value is “increased”. Also, the “expression of wild type A3F” value on wild type A3F is listed as “increased”. In addition, the “expression of wild type A3G” value on wild type A3G is given as “increased”. Further, the infectivity of virions entry in the data set on HIV NL4-3 [1] and in the data set on HIV NL4-3 [2] was “decreased infectivity” in each case.
With `COc1ccc(C(=O)Nc2ccc(Cl)c(Cl)c2)cc1NC(=O)C1CCC1` [NU-302], the “Vif-A3G-Luc Activity (% of RLUs compared to DMSO treated control)” value in the data set with A3G-Luc/Vif was found to be 167%.
In the case of `COc1ccc(C(=O)Nc2ccc(Cl)c(Cl)c2)cc1NC(=O)CC1CC1` [NU-466], in the data set on A3G-Luc/Vif, the “Vif-A3G-Luc Activity (% of RLUs compared to DMSO treated control)” value is 202%.
